Assay results reported in patent US4470840A, “1-Triacontanol plant growth stimulator formulations” (Biochemical Research Corporation, priority 1981, dated 1984).

Experiments:
Type in all cases: in vivo
[1] = tested on: Hybrid Sweet Corn Seedlings (cv. Silver Queen); test: Greenhouse trial: dry weight and water uptake of seedlings after foliar spraying; conditions: for Increase in dry weight: 1-triacontanol 0.1 mg/liter, additive 9 mM (none in the last line); for % increase (dry weight) / % increase (water uptake) / Dry weight / Water uptake: metal ion 9 mM (none in the last line) with 1-triacontanol 0.1 mg/liter, pH 8 to 10; for Dry weight: control 0.86 g; for Water uptake: control 8.7 g
Experimental: (§1) In general, greenhouse trials were conducted as follows: eight to twelve seeds were sown per pot in Peat-Lite® Mix and received an average of 100 ml of water per day. After plants had the third true leaf (average), the various formulations were applied to the leaves as a fine mist at air temperatures listed in Table 1. Temperatures above 20° C., preferably 25°-30° C., are preferred.
(§2) The 1-triacontanol formulation most generally used consisted of a concentrate containing 5 mg of 1-triacontanol dissolved in 1 liter of acetone, with 20 ml of the concentrate being further dissolved to 1 liter with water having a pH between 8 and 10, with over a pH of 11 also being effective. The pH was adjusted with aqueous NaOH and the concentrate added just prior to spraying.
(§3) When other plant growth substances were added to the formulations, these were added either to the concentrate in the polar organic solvent or alternatively in the aqueous solution, depending on the solubility of the plant growth substance. All metal salts were added to the water used to spray the 1-triacontanol formulations. After spraying, preferably about four to nine days or more, plants were harvested with roots, and fresh weights were obtained. Plants were then dried in an oven, preferably at a temperature below 100° C., until constant weight was obtained, and dry weight values were obtained for each plot. Subtraction of the dry weights from the fresh weights gave the water uptake weights (water content) of each plot. The weights of the above mentioned seedlings were compared to the control weights to obtain the percent increases.
(§4) It is particularly advantageous to arrange each of the potted plants in size range categories corresponding to the number of replications used. For example, if five replications are employed, plants are divided into five size categories, normally measured by the height of the plants. Treatments are then assigned randomly within each block (size category). This removes the variation due to plant size for statistical purposes, as is well practiced in the art. The resulting data is analyzed using any appropriate means, which may include the least significant difference method (L.S.D. method), Duncan's multiple range test, as used here (Biometrics, 11: 1 (1955)), or other means.

[2] = tested on: Hybrid Sweet Corn Seedlings (cv. Silver Queen); test: Lengths of stems and total plant length of seedlings sprayed Day 7; conditions: T = 1-triacontanol 0.1 mg/liter; for Length "a" (stem to the first leaf): control 11.5 cm; for Length "b" (total plant length): control 25.0 cm
[3] = tested on: Field Corn Seedlings (cv. Trojan TXS 94, Pioneer 3780, WF9 X Bear 38); test: Greenhouse trial: dry weight and water uptake of seedlings after foliar spraying; conditions: for Dry wt. increase: 1-triacontanol 0.1 mg/liter
Experimental: as §1, §2, §3, §4

[4] = 14-day old seedlings, Formulation 4
[5] = 14-day old seedlings, metal salt 1 mM (1 ea. for the mixture), with 1-triacontanol 0.1 mg/liter, Formulation 4
[6] = 14-day old seedlings, plant growth substance 0.01 mM, with 1-triacontanol 0.1 mg/liter
[7] = 14-day old seedlings, plant growth substance 0.01 mM, without 1-triacontanol
[8] = plant growth substance 0.001 mM, CaCl2 50 mM, 1-triacontanol 0.5 mg per liter, pH 8
[9] = plant growth substance 0.01 mM, CaCl2 50 mM, 1-triacontanol 0.5 mg per liter, pH 8
[10] = plant growth substance 0.10 mM, CaCl2 50 mM, 1-triacontanol 0.5 mg per liter, pH 8
[11] = cv. Trojan TXS 94, metal salt 1 mM (1 ea. for the mixture), Formulation 4
[12] = 14-day old seedlings, metal salt 5 mM, with 1-triacontanol 0.1 mg/liter, Formulation 4
[13] = 14-day old seedlings, metal salt 5 mM, with 1-triacontanol 0.1 mg/liter, Formulation 11 (chloroform, Tween-20)
[14] = 14-day old seedlings, metal salt 10 mM, with 1-triacontanol 0.1 mg/liter, Formulation 4
[15] = 14-day old seedlings, metal salt 10 mM, with 1-triacontanol 0.1 mg/liter, Formulation 11 (chloroform, Tween-20)
[16] = 14-day old seedlings, metal salt 10 mM, without 1-triacontanol, Formulation 4
[17] = cv. Trojan TXS 94, brassinosteroid 0.4 μM w/o triacontanol, Formulation 7
[18] = cv. Trojan TXS 94, brassinosteroid 0.4 μM with 1-triacontanol 0.5 mg/liter containing 10 mM CaCl2, Formulation 7
[19] = 14-day old seedlings, plant growth substance 0.10 mM, with 1-triacontanol 0.1 mg/liter
[20] = 14-day old seedlings, plant growth substance 0.10 mM, without 1-triacontanol
[21] = plant growth substance 0.01 mM, CaCl2 10 mM, 1-triacontanol 0.5 mg per liter, pH 8
[22] = plant growth substance 0.04 mM, CaCl2 10 mM, 1-triacontanol 0.5 mg per liter, pH 8
[23] = plant growth substance 0.04 mM, CaCl2 50 mM, 1-triacontanol 0.5 mg per liter, pH 8

## CC(C)CC(N)C(=O)[O-].CC(C)CC(N)C(=O)[O-].[Ca+2] (stereo not shown) [Metal Proteinate, reference compound]
[1]; Formulation 4
  Increase in dry weight: +15%

## [Pb+2] [Pb^+2]
[1]; [4]
  % increase (dry weight): +81%
  % increase (water uptake): +55%
  Dry weight: 1.56 g
  Water uptake: 13.5 g

## [Mn+2] [Mn^+2]
[1]; [4]
  % increase (dry weight): +31%
  % increase (water uptake): +25%
  Dry weight: 1.13 g
  Water uptake: 10.9 g

## [Cl-].[Cl-].[Mg+2] [MgCl2]
[1]; [5]
  Increases, H2O uptake: +20%
  Increases, dry wt.: +21%

## O=C(O)Cc1c[nH]c2ccccc12 [IAA, indole-3-acetic acid, reference compound]
[2]
  Increase in length "a": 0%
  Increase in length "b": -2%
  Length "a" (stem to the first leaf): 11.6 cm
  Length "b" (total plant length): 24.4 cm
[1]; [6]
  Increases, H2O uptake: -5%
  Increases, dry wt.: +2%
[1]; [7]
  Increases, H2O uptake: -7%
  Increases, dry wt.: +4%
[1]; [8]
  Increases, H2O uptake: +18%
  Increases, dry wt.: +37%
[1]; [9]
  Increases, H2O uptake: +25%
  Increases, dry wt.: +56%
[1]; [10]
  Increases, H2O uptake: +14%
  Increases, dry wt.: +36%

## [Cl][Mn][Cl] [MnCl2]
[1]; [5]
  Increases, H2O uptake: +29%
  Increases, dry wt.: +9%

## [Mg+2] [Mg^+2]
[1]; [4]
  % increase (dry weight): +73%
  % increase (water uptake): +55%
  Dry weight: 1.49 g
  Water uptake: 13.5 g

## [Sr+2] [Sr^+2]
[1]; [4]
  % increase (dry weight): +81%
  % increase (water uptake): +48%
  Dry weight: 1.56 g
  Water uptake: 12.9 g

## [Ca+2].[Cl-].[Cl-] [CaCl2]
[3]; cv. Pioneer 3780, metal salt 0 mM, Formulation 11
  Dry wt. increase: -5%
[3]; cv. Pioneer 3780, metal salt 1 mM, Formulation 4
  Dry wt. increase: +19%
[3]; cv. Pioneer 3780, metal salt 7.5 mM, Formulation 4, NAA 1.0 μM
  Dry wt. increase: +32%
[3]; cv. Trojan TXS 94, metal salt 0.5 mM, Formulation 4
  Dry wt. increase: +22%
[3]; [11]
  Dry wt. increase: 20-30%
[3]; cv. Trojan TXS 94, metal salt 1 mM, Formulation 11
  Dry wt. increase: -10%
[3]; cv. Trojan TXS 94, metal salt 1.25 mM, Formulation 4
  Dry wt. increase: +30%
[3]; cv. Trojan TXS 94, metal salt 5 mM, Formulation 7, 2,4,5-T 10.0 μM
  Dry wt. increase: +22%
[3]; cv. Trojan TXS 94, metal salt 5 mM, Formulation 7, 2,4-D 10.0 μM
  Dry wt. increase: +23%
[3]; cv. Trojan TXS 94, metal salt 6 mM, Formulation 7, NAA 1.0 μM
  Dry wt. increase: +28%
[3]; cv. Trojan TXS 94, metal salt 3-5 mM, Formulation 7, IAA 10.0 μM
  Dry wt. increase: 20-30%
[3]; cv. WF9 X Bear 38, metal salt 1 mM, Formulation 4
  Dry wt. increase: +8%
[1]; Formulation 4
  Increase in dry weight: +50%
[1]; [5]
  Increases, H2O uptake: +35%
  Increases, dry wt.: +42%
[1]; [12]
  Increases, H2O uptake: +21%
  Increases, dry wt.: +50%
[1]; [13]
  Increases, H2O uptake: +6%
  Increases, dry wt.: +5%
[1]; [14]
  Increases, H2O uptake: +11%
  Increases, dry wt.: +65%
[1]; [15]
  Increases, H2O uptake: +9%
  Increases, dry wt.: -5%
[1]; [16]
  Increases, H2O uptake: -2%
  Increases, dry wt.: +4%

## CC(C)[C@@H](C)[C@H](O)[C@@H](O)[C@@H](C)[C@H]1CC[C@H]2[C@@H]3COC(=O)[C@H]4C[C@H](O)[C@H](O)C[C@]4(C)[C@H]3CC[C@]12C [Brassinosteroid, 2α,3α,22α,23α-tetrahydroxy-24α-methyl-B-hoo-5α-cholestan-6-one, reference compound]
[3]; [17]
  Increases, dry wt.: +11%
  Increases, water uptake: +8%
[3]; [18]
  Increases, dry wt.: +19%
  Increases, water uptake: +10%

## O=c1ccc(=O)[nH][nH]1 [MH, maleic hydrazide, reference compound]
[1]; [19]
  Increases, H2O uptake: -7%
  Increases, dry wt.: +12%
[1]; [20]
  Increases, H2O uptake: -1%
  Increases, dry wt.: +7%

## [Zn+2] [Zn^+2]
[1]; [4]
  % increase (dry weight): +38%
  % increase (water uptake): +21%
  Dry weight: 1.17 g
  Water uptake: 10.5 g

## c1coc(CNc2ncnc3nc[nH]c23)c1 [Kinetin, 6-furfurylamino purine, reference compound]
[2]
  Increase in length "a": 0%
  Increase in length "b": +30%
  Length "a" (stem to the first leaf): 11.5 cm
  Length "b" (total plant length): 32.5 cm
[1]; [6]
  Increases, H2O uptake: +14%
  Increases, dry wt.: -21%
[1]; [7]
  Increases, H2O uptake: -3%
  Increases, dry wt.: -24%
[1]; [21]
  Increases, H2O uptake: +13%
  Increases, dry wt.: +3%
[1]; [9]
  Increases, H2O uptake: -2%
  Increases, dry wt.: +1%

## [Ca+2] [Ca^+2]
[1]; [4]
  % increase (dry weight): +50%
  % increase (water uptake): +16%
  Dry weight: 1.29 g
  Water uptake: 10.1 g

## [Cl][La]([Cl])[Cl] [LaCl3]
[3]; [11]
  Dry wt. increase: 25-30%
[1]; [14]
  Increases, dry wt.: +72%
[1]; [16]
  Increases, H2O uptake: -2%
  Increases, dry wt.: +5%

## C=C1C[C@]23C[C@@]1(O)CC[C@H]2[C@@]12C=C[C@H](O)[C@@](C)(C(=O)O1)[C@H]2[C@@H]3C(=O)O [GA3, gibberellic acid, reference compound]
[2]
  Increase in length "a": -3%
  Increase in length "b": +6%
  Length "a" (stem to the first leaf): 11.2 cm
  Length "b" (total plant length): 26.6 cm
[1]; [6]
  Increases, H2O uptake: -3%
  Increases, dry wt.: -15%
[1]; [7]
  Increases, H2O uptake: -6%
  Increases, dry wt.: -24%
[1]; [22]
  Increases, H2O uptake: +15%
  Increases, dry wt.: +16%
[1]; [23]
  Increases, H2O uptake: +13%
  Increases, dry wt.: +22%

## O=S(=O)([O-])[O-].O=S(=O)([O-])[O-].[Ce+4] [Ce(SO4)2]
[1]; [5]
  Increases, H2O uptake: +26%
  Increases, dry wt.: +21%

## [Cd+2] [Cd^+2]
[1]; [4]
  % increase (dry weight): +58%
  % increase (water uptake): +14%
  Dry weight: 1.36 g
  Water uptake: 9.9 g

## [Ba+2] [Ba^+2]
[1]; [4]
  % increase (dry weight): +35%
  % increase (water uptake): +48%
  Dry weight: 1.16 g
  Water uptake: 12.9 g

## N.N.N.N.N.N.[Cl-].[Cl-].[Cl-].[Co+3] [Co(NH3)6 Cl3, reference compound]
[1]; Formulation 4
  Increase in dry weight: +13%

## O=C(O)COc1ccc(Cl)cc1Cl [2,4-D, 2,4-dichlorophenoxyacetic acid, reference compound]
[1]; [6]
  Increases, H2O uptake: -13%
  Increases, dry wt.: +17%
[1]; [7]
  Increases, H2O uptake: -9%
  Increases, dry wt.: +10%
[1]; formulations containing metal ions and synthetic auxin, cv. Silver Queen
  Increase in dry weight over controls: 100%

## O=C(O)c1cc(I)cc(I)c1I [TIBA, 2,3,5-triiodobenzoic acid, reference compound]
[1]; [19]
  Increases, H2O uptake: +1%
  Increases, dry wt.: +19%
[1]; [20]
  Increases, H2O uptake: -12%
  Increases, dry wt.: +10%
